According to patent US20260151451A1, “CYCLIC PEPTIDE DERIVATIVE COMPOSITION FOR TREATING OR PREVENTING CENTRAL NERVOUS SYSTEM INJURY/DISEASE” (DKS Co. Ltd., priority 2022, published 2026):
“And” between values parts separate entries of the source, which are not always exact repeats. Equal entries are not always repeated. “Also recorded” adds a separate entry of the source.

Key:
[1] = system: transient focal cerebral ischemia model rat; experiment: Cerebral infarct volume in transient focal cerebral ischemia model rat (Example 33; test substance given immediately after MCA recanalization); type: in vivo; details: for Cerebral infarct volume (mm^3): tail vein, brain extracted 24 hours after MCA occlusion, mean ± S.E. of 10 rats; for Individual data of the cerebral infarct volume (mm^3): individual animals
Method: The activity of the compound of the present disclosure was evaluated according to the following procedure.
Compound 9 (aqueous solution (50 mg/mL) prepared by dissolving a white powder in a saturated NaHCO3 solution)
Edaravone (trade name: Radicut (registered trademark) Mitsubishi Tanabe Pharma Corporation) Vehicle
Japanese Pharmacopoeia physiological saline (hereinafter, physiological saline) (Otsuka Pharmaceutical Factory, Inc.)
Rat (strain: Crl: CD (SD)) (THE JACKSON LABORATORY JAPAN, INC.)
• Intravenous administration
Using a syringe (1 mL, Terumo Corporation) equipped with an injection needle (25G×5/8, Terumo Corporation), tail vein administration was performed immediately after MCA recanalization.
Using a syringe (1 mL, Terumo Corporation) equipped with an injection needle (25G×5/8, Terumo Corporation), tail vein administration was performed immediately after MCA recanalization and 30 minutes after MCA recanalization (actual result: ±0 minutes from the specified time, allowable range: ±3 minutes from the specified time).
• 0.2 mg/kg and 2 mg/kg
• (1) The received test substance was thawed and then divided into 4 brown glass bottles by 0.1 mL. • (2) The test substances divided into small portions were stored frozen (measured value: −24.4 to −22.6° C., allowable range: −35 to −10° C.) until use in preparation. • (3) One test substance divided into small portions for each day of administration was thawed, and 4.9 mL of physiological saline was added to prepare a 1 mg/mL administration solution . . . I • (4) From I, 0.5 mL was dispensed into a brown glass bottle, and 4.5 mL of physiological saline was added to prepare a 0.1 mg/mL administration solution. • (5) It was prepared before use. • (6) The remainder after administration was discarded.
(§1) The rat was fixed in a supine position under 2% isoflurane inhalation anesthesia (Lot No.: 234KAP, Mylan Inc., laughing gas:oxygen=7:3). A thermometer probe connected to a digital thermometer (TX1002, Yokogawa Meters & Instruments Corporation) was inserted into the rectum to perform thermoregulation during surgery, and changes in rectal temperature before and after surgery were monitored. As a result, since a decrease in rectal temperature was not observed in any rat, heating was not performed. The right common carotid artery, external carotid artery, and internal carotid artery were exposed, and the common carotid artery and external carotid artery were ligated with sutures. A nylon yarn (plug) No. 4 previously coated with silicon (Kulzer Japan Co., Ltd.) and cut to a length of 19 mm was inserted from the bifurcation of the external carotid artery and the internal carotid artery to occlude the right MCA. After MCA occlusion, the neck skin was sutured and released from anesthesia. Flexion of the contralateral forelimb on the occluded side was confirmed 30 minutes after MCA occlusion. Under 2% isoflurane inhalation anesthesia, the right common carotid artery, the right external carotid artery, and the right internal carotid artery were exposed again, the plug was removed 2 hours after MCA occlusion, and the blood flow of the right MCA was resumed. After the blood flow of the right MCA was resumed, ligation of the right internal carotid artery and suturing of the neck skin were performed to awaken the animal from anesthesia. Note that benzylpenicillin potassium (Lot No.: 00904, Meiji Seika Pharma Co., Ltd.) was administered intramuscularly at a dosage of 20,000 units/kg before the MCA occlusion surgery.
24 hours after MCA occlusion, the animal was decapitated under 2% isoflurane inhalation anesthesia (Lot No.: 234KAP, Mylan Inc., laughing gas:oxygen=7:3), and the whole brain was extracted to prepare a brain section having a thickness of 2 mm. Referring to Paxinos and Watson brain atlas [axinos G. and Watson C. The rat brain in stereotaxic coordinates, second edition. […]

[2] = system: transient focal cerebral ischemia model rat; experiment: Cerebral infarct volume in transient focal cerebral ischemia (MCA occlusion/recanalization) model rat; type: in vivo; details: for Cerebral infarct volume: group mean ± S.E., n=10, brain extracted 24 hours after MCA occlusion; for Cerebral infarct volume compared with the vehicle group: Dunnett's multiple comparison test
From the text: as §1, with “248KKY, Viatris Pharmaceutical Co., Ltd.,” for “234KAP, Mylan Inc.,”
24 hours after MCA occlusion, the animal was decapitated under 2% isoflurane inhalation anesthesia (Lot No.: 248KKY, Viatris Pharmaceutical Co., Ltd., laughing gas:oxygen=7:3), and the whole brain was extracted to prepare a brain section having a thickness of 2 mm. Referring to Paxinos and Watson brain atlas [Paxinos G. and Watson C. The rat brain in stereotaxic coordinates, second edition. San Diego, New York, Boston, London, Sydney, Tokyo, Toronto: Academic Press Inc.; 1986.], the brain sections were set at positions where coronal planes of 4 mm anterior to Bregma, 2 mm anterior to Bregma, above Bregma, 2 mm posterior to Bregma, 4 mm posterior to Bregma, and 6 mm posterior to Bregma were obtained. The brain sections were immersed in a 1% (W/V) 2,3,5-triphenyltetrazolium chloride (Lot No.: M7B5587, Nacalai Tesque Inc.) solution at room temperature, stained, and photographed. From the obtained photograph, brain sections (infarction site and non-infarction site) were traced on an OHP sheet. The traced image was captured by a scanner (Seiko Epson Corporation), image analysis was performed using WinROOF2015 (MITANI CORPORATION), a cerebral infarct area was obtained as a measured value, and a cerebral infarct volume between 4 mm anterior to Bregma and 6 mm posterior to Bregma was calculated from the obtained value.
[formula] • V: Cerebral infarct volume • a: Cerebral infarct area on section of 4 mm anterior to Bregma • b: Cerebral infarct area on section of 2 mm anterior to Bregma • c: Cerebral infarct area on section of Bregma • d: Cerebral infarct area on section of 2 mm posterior to Bregma • e: Cerebral infarct area on section of 4 mm posterior to Bregma • f: Cerebral infarct area on section of 6 mm posterior to Bregma
• Calculation of cerebral infarct volume (mm^3)
The employed data were expressed as a mean±standard error.
The following combinations were performed.

Structure (SMILES) | Cerebral infarct volume compared with the vehicle group (Student's t-test) ([1]; Edaravone 3 mg/kg per dose i.v., twice) | Cerebral infarct volume (mm^3) ([1]; Edaravone 3 mg/kg per dose, immediately after and 30 minutes after MCA recanalization) | Individual data of the cerebral infarct volume (mm^3) ([1]; Edaravone 3 mg/kg per dose group (n = 10)) | Cerebral infarct volume ([2]; Edaravone group 3 mg/kg) | Cerebral infarct volume, individual data ([2]; individual animals Nos. 401-414, Edaravone group) | Cerebral infarct volume (mm^3) ([1]; Compound 9 0.2 mg/kg, immediately after MCA recanalization, 2 hours MCA occlusion, 0.2 mg/kg) | Statistical difference of cerebral infarct volume from the vehicle group (Dunnett's multiple comparison test) ([1]; Compound 9 2 mg/kg i.v.) | Cerebral infarct volume (mm^3) ([1]; Compound 9 2 mg/kg, immediately after MCA recanalization, 2 hours MCA occlusion, 2 mg/kg) | Cerebral infarct reduction action: cerebral infarct volume compared with the vehicle group ([1]; Compound 9 groups, 0.2 mg/kg and 2 mg/kg i.v.) | Individual data of the cerebral infarct volume (mm^3) ([1]; Compound 9 0.2 mg/kg group (n = 10), 0.2 mg/kg) | Individual data of the cerebral infarct volume (mm^3) ([1]; Compound 9 2 mg/kg group (n = 10), 2 mg/kg) | Cerebral infarct volume compared with the vehicle group ([2]; administered 30 minutes after MCA recanalization) | Cerebral infarct volume compared with the vehicle group ([2]; administered 1 hour after MCA recanalization, p value=0.0525) | Cerebral infarct volume ([2]; 2 mg/kg administered 30 minutes after MCA reperfusion) | Cerebral infarct volume ([2]; 2 mg/kg administered 1 hour after MCA reperfusion) | Cerebral infarct volume, individual data ([2]; individual animals Nos. 202-214, administered 30 minutes after MCA reperfusion) | Cerebral infarct volume, individual data ([2]; individual animals Nos. 301-314, second Compound 9 group (head prints 30 minutes after MCA reperfusion; mean matches the 1 hour group))
CC1=NN(c2ccccc2)C(=O)C1 [Edaravone, reference compound] | showed low values, and a statistically significant difference was observed; also recorded: showed a lower value than that of the vehicle group, and a statistically significant difference was observed | 292.8±14.2 mm^3 and 292.8 ± 14.2 ^## mm^3 and 292.8 mm^3 | 248.4 mm^3 and 324.8 mm^3 and 282.1 mm^3 and 375.0 mm^3 and 308.0 mm^3 and 319.8 mm^3 and 217.2 mm^3 and 299.1 mm^3 and 253.8 mm^3 | 232.2±14.6 mm^3 and 232.2 ± 14.6 ^## mm^3 and 232.2 mm^3 | 140.7 mm^3 and 218.3 mm^3 and 221.0 mm^3 and 170.0 mm^3 and 231.1 mm^3 and 268.2 mm^3 and 268.9 mm^3 and 278.6 mm^3 and 268.4 mm^3 and 257.0 mm^3 |  |  |  |  |  |  |  |  |  |  |  | 
CC[C@@]1(C)Oc2cc(ccc2O)C[C@H](NC)C(=O)N[C@@H](C(C)C)C(=O)N[C@@H]1C(=O)N[C@@H](CC(=O)O)C(=O)O [Compound 9] |  |  |  |  |  | 336.9±14.2 mm^3 and 336.9 mm^3 | a statistically significant difference was observed in the 2 mg/kg group | 301.8±12.8 mm^3 and 301.8 ± 12.8 ^** mm^3 and 301.8 mm^3 | all showed low values; also recorded: has an ameliorating effect on cerebral infarct after cerebrovascular disorder | 341.9 mm^3 and 350.2 mm^3 and 331.8 mm^3 and 366.5 mm^3 and 372.7 mm^3 and 219.1 mm^3 and 318.3 mm^3 and 339.3 mm^3 and 369.8 mm^3 and 359.8 mm^3 | 264.4 mm^3 and 343.3 mm^3 and 342.4 mm^3 and 374.1 mm^3 and 279.7 mm^3 and 273.1 mm^3 and 293.4 mm^3 and 251.2 mm^3 and 316.6 mm^3 and 279.6 mm^3 | ameliorating effect on cerebral infarct | improvement tendency | 250.0±20.5 mm^3 and 250.0 ± 20.5 * mm^3 and 250.0 mm^3 | 260.4±13.9 mm^3 and 260.4 mm^3 | 254.3 mm^3 and 319.8 mm^3 and 274.6 mm^3 and 210.2 mm^3 and 133.9 mm^3 and 192.3 mm^3 and 272.2 mm^3 and 296.0 mm^3 and 201.4 mm^3 and 345.5 mm^3 | 253.1 mm^3 and 243.0 mm^3 and 355.2 mm^3 and 220.7 mm^3 and 261.4 mm^3 and 250.7 mm^3 and 192.0 mm^3 and 256.3 mm^3 and 272.3 mm^3 and 299.0 mm^3
